Laboratory results: PubChem BioAssay (NCI)
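These data come from cells grown in 96-well plates and exposed to compound for 48 hours at five concentrations. Definition used: TGI = concentration required for complete inhibition of growth.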

Key:
Assay in all cases: NCI tumour cell line growth inhibition, 48 h
[1] = system: 786-0 renal
[2] = system: A498 renal
[3] = system: A549 NSCLC
[4] = system: ACHN renal
[5] = system: BT-549 breast
[6] = system: CAKI-1 renal
[7] = system: CCRF-CEM leukemia
[8] = system: COLO 205 colon
[9] = system: DLD-1 colon
[10] = system: DMS 114 small cell lung
[11] = system: DMS 273 small cell lung
[12] = system: DU-145 prostate
[13] = system: EKVX NSCLC
[14] = system: HCC-2998 colon
[15] = system: HCT-116 colon
[16] = system: HCT-15 colon
[17] = system: HL-60(TB) leukemia
[18] = system: HOP-18 NSCLC
[19] = system: HOP-62 NSCLC
[20] = system: HOP-92 NSCLC
[21] = system: HS 578T breast
[22] = system: HT29 colon
[23] = system: IGROV1 ovarian
[24] = system: K-562 leukemia
[25] = system: KM12 colon
[26] = system: KM20L2 colon
[27] = system: LOX IMVI melanoma
[28] = system: LXFL 529 NSCLC
[29] = system: M14 melanoma
[30] = system: M19-MEL melanoma
[31] = system: MALME-3M melanoma
[32] = system: MCF7 breast
[33] = system: MDA-MB-231 breast
[34] = system: MDA-MB-435
[35] = system: MOLT-4 leukemia
[36] = system: NCI-H226 lung
[37] = system: NCI-H23 lung
[38] = system: NCI-H460 lung
[39] = system: NCI-H522 lung
[40] = system: NCI/ADR-RES ovarian
[41] = system: OVCAR-3 ovarian
[42] = system: OVCAR-4 ovarian
[43] = system: OVCAR-5 ovarian
[44] = system: OVCAR-8 ovarian
[45] = system: PC-3 prostate
[46] = system: RPMI-8226 leukemia
[47] = system: RXF 393 renal
[48] = system: SF-268 CNS
[49] = system: SF-295 CNS
[50] = system: SF-539 CNS
[51] = system: SK-MEL-2 melanoma
[52] = system: SK-MEL-28 melanoma
[53] = system: SK-MEL-5 melanoma
[54] = system: SK-OV-3 ovarian
[55] = system: SN12C renal
[56] = system: SNB-19 CNS
[57] = system: SNB-75 CNS
[58] = system: SNB-78 CNS
[59] = system: SR leukemia
[60] = system: SW-620 colon
[61] = system: T-47D breast
[62] = system: TK-10 renal
[63] = system: U251 CNS
[64] = system: UACC-257 melanoma
[65] = system: UACC-62 melanoma
[66] = system: UO-31 renal
[67] = system: XF 498 CNS

With `Cc1cccc(NC(=O)c2cccc([N+](=O)[O-])c2O)c1C` the TGI [1] was > 100 µM, the TGI [2] was > 100 µM and the TGI [3] was > 100 µM. For the same compound, the TGI [4] was > 100 µM, the TGI [5] was > 100 µM and the TGI [6] was > 100 µM. For the same compound, the TGI [7] was > 31.6 µM, the TGI [8] was 32.9 µM and the TGI [9] was > 100 µM. For the same compound, the TGI [10] was > 100 µM, the TGI [11] was 97.7 µM and the TGI [12] was > 100 µM. The TGI [13] was > 100 µM, the TGI [14] was > 100 µM and the TGI [15] was > 100 µM. For the same compound, the TGI [16] was > 100 µM, the TGI [17] was 22.1 µM and the TGI [18] was > 100 µM. For the same compound, the TGI [19] was 52.4 µM, the TGI [20] was 49.7 µM and the TGI [21] was > 100 µM. The TGI [22] was > 100 µM, the TGI [23] was > 100 µM and the TGI [24] was > 31.6 µM. For the same compound, the TGI [25] was > 69.4 µM, the TGI [26] was 83.2 µM and the TGI [27] was > 72.8 µM. For the same compound, the TGI [28] was > 100 µM, the TGI [29] was > 100 µM and the TGI [30] was 79.1 µM. For the same compound, the TGI [31] was > 84.2 µM, the TGI [32] was 81.2 µM and the TGI [33] was > 100 µM. The TGI [34] was > 100 µM, the TGI [35] was > 92.7 µM and the TGI [36] was > 87.7 µM. The TGI [37] was 62.9 µM, the TGI [38] was > 69.6 µM and the TGI [39] was 58 µM. The TGI [40] was > 100 µM, the TGI [41] was > 100 µM and the TGI [42] was > 100 µM. For the same compound, the TGI [43] was > 89.2 µM, the TGI [44] was > 100 µM and the TGI [45] was > 100 µM. For the same compound, the TGI [46] was > 87.3 µM, the TGI [47] was 53.6 µM and the TGI [48] was > 100 µM. The TGI [49] was 80.1 µM, the TGI [50] was 96.9 µM and the TGI [51] was 46.9 µM. For the same compound, the TGI [52] was > 100 µM, the TGI [53] was 27.6 µM and the TGI [54] was > 81.9 µM. For the same compound, the TGI [55] was > 100 µM, the TGI [56] was > 100 µM and the TGI [57] was 81.1 µM. For the same compound, the TGI [58] was > 100 µM, the TGI [59] was > 100 µM and the TGI [60] was > 100 µM. The TGI [61] was > 100 µM, the TGI [62] was > 100 µM and the TGI [63] was > 100 µM. For the same compound, the TGI [64] was > 79.3 µM, the TGI [65] was > 100 µM and the TGI [66] was 74.7 µM. It also gave a TGI [67] of 61 µM.

In the case of `COC(=O)c1c2cccccc-2c(Cc2c3cccccc-3c(C(=O)OC)c2O)c1O`, the TGI [1] is reported as > 100 µM, the TGI [2] is reported as > 100 µM and the TGI [3] is reported as > 100 µM. For the same compound, the TGI [4] was > 100 µM, the TGI [6] was > 100 µM and the TGI [7] was > 100 µM. For the same compound, the TGI [8] was > 100 µM, the TGI [9] was > 100 µM and the TGI [10] was > 100 µM. The TGI [11] was > 100 µM, the TGI [13] was > 100 µM and the TGI [14] was > 100 µM. The TGI [15] was > 100 µM, the TGI [16] was > 100 µM and the TGI [17] was > 100 µM. For the same compound, the TGI [18] was > 100 µM, the TGI [19] was > 100 µM and the TGI [20] was > 100 µM. The TGI [22] was > 100 µM, the TGI [23] was > 100 µM and the TGI [24] was > 100 µM. The TGI [25] was > 100 µM, the TGI [26] was > 100 µM and the TGI [27] was > 100 µM. For the same compound, the TGI [29] was > 100 µM, the TGI [30] was > 100 µM and the TGI [31] was > 100 µM. For the same compound, the TGI [35] was > 100 µM, the TGI [36] was > 100 µM and the TGI [37] was > 100 µM. For the same compound, the TGI [38] was > 100 µM, the TGI [39] was > 100 µM and the TGI [41] was > 100 µM. For the same compound, the TGI [42] was > 100 µM, the TGI [43] was > 100 µM and the TGI [44] was > 100 µM. For the same compound, the TGI [46] was > 100 µM, the TGI [48] was > 100 µM and the TGI [49] was > 100 µM. The TGI [50] was > 100 µM, the TGI [51] was > 100 µM and the TGI [52] was > 100 µM. For the same compound, the TGI [53] was > 100 µM, the TGI [54] was > 100 µM and the TGI [55] was > 100 µM. For the same compound, the TGI [56] was > 100 µM, the TGI [57] was > 100 µM and the TGI [58] was > 100 µM. The TGI [59] was > 100 µM, the TGI [60] was > 100 µM and the TGI [62] was > 100 µM. For the same compound, the TGI [63] was > 100 µM, the TGI [64] was > 100 µM and the TGI [65] was > 100 µM. The TGI [66] was > 100 µM and the TGI [67] was > 100 µM.

In the case of `O=C(c1ccccc1)c1cn(/N=C\c2ccccc2)c(=O)nc1-c1ccccc1`, the TGI [1] is reported as > 100 µM, the TGI [2] is reported as > 100 µM and the TGI [3] is reported as > 100 µM. The TGI [4] was > 100 µM, the TGI [7] was > 100 µM and the TGI [8] was > 100 µM. The TGI [9] was > 100 µM, the TGI [10] was > 100 µM and the TGI [13] was > 100 µM. The TGI [14] was > 100 µM, the TGI [15] was > 100 µM and the TGI [16] was > 100 µM. For the same compound, the TGI [18] was > 100 µM, the TGI [19] was > 100 µM and the TGI [20] was > 100 µM. The TGI [22] was > 100 µM, the TGI [24] was > 100 µM and the TGI [25] was > 100 µM. For the same compound, the TGI [26] was > 100 µM, the TGI [27] was > 100 µM and the TGI [28] was > 100 µM. For the same compound, the TGI [29] was > 100 µM, the TGI [30] was > 100 µM and the TGI [31] was > 100 µM. For the same compound, the TGI [35] was > 100 µM, the TGI [36] was > 100 µM and the TGI [37] was > 100 µM. For the same compound, the TGI [38] was > 100 µM, the TGI [39] was > 100 µM and the TGI [41] was > 100 µM. For the same compound, the TGI [42] was > 100 µM, the TGI [43] was > 100 µM and the TGI [44] was > 100 µM. The TGI [47] was > 100 µM, the TGI [48] was > 100 µM and the TGI [49] was > 100 µM. The TGI [50] was > 100 µM, the TGI [51] was > 100 µM and the TGI [52] was > 100 µM. The TGI [53] was > 100 µM, the TGI [54] was > 100 µM and the TGI [55] was > 100 µM. The TGI [56] was > 100 µM, the TGI [57] was > 100 µM and the TGI [58] was > 100 µM. The TGI [60] was > 100 µM, the TGI [62] was > 100 µM and the TGI [63] was > 100 µM. For the same compound, the TGI [64] was > 100 µM, the TGI [65] was > 100 µM and the TGI [66] was > 100 µM.
